The text below walks through data of PubChem BioAssay (NCI).

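Five compound concentrations were applied to cells in 96-well plates for 48 hours; endpoints were derived by simple linear interpolation of the resulting dose-response curve. GI50: concentration for 50% inhibition of growth. Definition used: TGI = concentration required for complete inhibition of growth.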

What all share (experiment): NCI-60 cell line screen, 48 h
For test [1], the system named is SNB-19 CNS.
Test [2] deals with K-562 leukemia.
The subject of test [3] is NCI-H460 lung.
Test [4] has as its system HCC-2998 colon.
The test system of test [5] is HT29 colon.
For test [6], the system named is NCI-H226 lung.
Test [7] has as its system OVCAR-5 ovarian.
The subject of test [8] is SK-OV-3 ovarian.
The subject of test [9] is SF-268 CNS.
The test system of test [10] is OVCAR-8 ovarian.

For `COc1ccccc1/C=N/N=C(\N)NO`, the TGI in [1] is over 100 µM; in [2], over 100 µM; in test [3], over 100 µM; in test [4] it was 29.2 µM; in test [5], over 100 µM; in [6] it was 90.7 µM. Besides, the results for the TGI in [7], in [8] and in test [9] were 24.3 µM, over 100 µM and over 100 µM, respectively.
Consider `Cn1c(=O)c(C(=O)NC(=O)OCc2ccccc2)cn(CCSCCOC(=O)NCCCCCCNC(=O)OCCSCCn2cc(C(=O)NC(=O)OCc3ccccc3)c(=O)n(C)c2=O)c1=O`, for which the TGI in test [1], in [2], in test [3], in [4], in [6] and in test [7] was over 100 µM in each case. Besides, the TGI in test [10] and in test [9] was over 100 µM each time.
Turning to `CC1=Nn2c(nnc2-c2ccc(N)cc2)NC(C)(C)C1`, the TGI in test [1], in [2], in [3], in [4], in test [5] and in [6] was over 100 µM in each case. Besides, the TGI in test [7], in test [8] and in test [9] was over 100 µM throughout.
`CC(=O)c1c[nH]cc1CO`: the TGI in test [1], in [2], in test [3], in test [4], in test [6] and in test [7] was over 10 µM throughout. Further, the TGI in test [8], in [10] and in test [9] was over 10 µM each time.
With `C=C1CC[C@@H]2[C@](C)(COC(C)=O)[C@H](OC(C)=O)CC[C@@]2(C)[C@@H]1C/C=C1/C(=O)OC[C@H]1OC(C)=O`, the GI50 in test [1] was 10.8 µM; in [2], 2.63 µM; in test [3], 18.6 µM; in [4] it was 12.2 µM; in test [6], 2.14 µM; in [7], 1.93 µM. The GI50 in test [8] is 19.1 µM; in test [10], 3.38 µM; in test [9], 8.56 µM. In addition, the TGI in test [1] was 24.5 µM; in test [2], 32.1 µM; in test [3] it was 37.7 µM; in test [4] it was 27.3 µM; in test [6] it was 5.42 µM; in test [7], 3.92 µM. Moreover, the values for the TGI in test [8], in test [10] and in test [9] were 36.3 µM, 22 µM and 22.8 µM, respectively.
Take `CC12CC3CC(C1)CC(N=[N+]=[N-])(C3)C2`: the TGI in test [1], in test [2], in test [3], in test [4], in test [5] and in test [6] was over 100 µM in each case. The TGI in test [7], in test [8] and in test [10] was over 100 µM throughout.
As to `[C-]#[N+]C(C)(C)C[C@H]1CC(C)C2CCC(C)C3([N+]#[C-])CCC(=C)C1[C@H]23` (stereo not given in full), the TGI in test [1] was 17.5 µM; in test [2], over 50 µM; in test [4], 14.7 µM; in [5], 11.7 µM; in test [6], 10.7 µM; in [7], 8.49 µM. Besides, the results for the TGI in test [8], in [10] and in [9] were 45.3 µM, 9.22 µM and 10.5 µM, respectively.
`Clc1nc(Cl)c(Cc2ccccc2)c(Cl)n1`: the TGI in [1] is 33.3 µM; in test [2] it was over 100 µM; in test [4] it was 66.1 µM; in test [5], 25.3 µM; in test [6], 32.4 µM; in [7], 38.2 µM. The TGI in test [8] is 28.9 µM; in test [10], 19 µM; in test [9], 57.7 µM.
For `COc1cc(-c2oc3c(OC)c(O)c(OC)c(O)c3c(=O)c2OC)ccc1O`, the TGI in test [1], in test [2], in test [3], in test [4], in test [5] and in [6] was over 100 µM throughout. Further, the TGI in [7] is over 100 µM; in test [8] it was 54.6 µM; in test [10] it was over 100 µM.
Regarding `COc1ccc2c(c1)OC(N)=C(C#N)C2c1ccc(F)cc1` (stereo not given), the GI50 is 2.25 µM in test [1]; 2.05 µM in test [3]; 6.44 µM in test [4]; 0.625 µM in test [5]; 20.7 µM in test [6]; 14.5 µM in test [7]. The values for the GI50 in test [8], in test [10] and in test [9] were 2.94 µM, 4.49 µM and 7.38 µM, respectively. Also, the TGI in test [1] is over 100 µM; in test [3], over 100 µM; in [4] it was over 100 µM; in test [5] it was 13.5 µM; in [6] it was over 100 µM; in [7], over 100 µM. Moreover, the TGI in [8] is 66.3 µM; in [10], over 100 µM; in test [9], over 100 µM.
`COc1cc([C@@H]2OC(=O)C3C2C(=O)O[C@H]3c2cc(OC)c(OC)c(OC)c2)cc(OC)c1OC` (stereo not given in full): the TGI in [1], in test [2], in [3], in test [4], in test [5] and in test [6] was over 100 µM throughout. In addition, the TGI in test [8], in test [10] and in test [9] was over 100 µM each time.
Turning to `S=C(Nc1ccccc1)N(Cc1ccccc1)c1ccccc1`, the TGI was over 100 µM in [1]; over 100 µM in [2]; over 100 µM in [3]; over 100 µM in [4]; 85.9 µM in test [5]; over 100 µM in test [6]. Moreover, the TGI in test [7], in [8] and in test [9] was over 100 µM in each case.
